Results as given in ChEMBL document CHEMBL5038604, “5α-Epoxyalantolactone Inhibits Metastasis of Triple-Negative Breast Cancer Cells by Covalently Binding a Conserved Cysteine of Annexin A2” (J Med Chem, 2021).
Active and inactive are the calls of the source.

Assays:
[1] = tested on: 4T1; assay: Antitumor activity against mouse 4T1 cells expressing luciferase gene implanted in BALB/c lung metastatic mouse model assessed as decrease in lung metastatic burden at 100 mg/kg, po administered once a day for 20 days by H&E staining based assay; type: functional, organism-based; conditions: time 20.0 day
[2] = tested on: 4T1; assay: Antitumor activity against mouse 4T1 cells xenografted in BALB/c mouse assessed as decrease in lung metastasis at 100 mg/kg, po administered once a day for 36 days by H&E staining based assay; type: functional, organism-based; conditions: time 36.0 day
[3] = tested on: 4T1; assay: Antimetastatic activity against mouse 4T1 cells expressing luciferase gene implanted in BALB/c lung metastatic mouse model assessed as down regulation of E-cadherin expression in liver tissue at 100 mg/kg, po administered once a day for 20 days; type: functional, organism-based; conditions: time 20.0 day
[4] = tested on: 4T1; assay: Antitumor activity against mouse 4T1 cells expressing luciferase gene implanted in BALB/c lung metastatic mouse model assessed as decrease in lung metastasis at 100 mg/kg, po administered once a day for 20 days by H&E staining based assay; type: functional, organism-based; conditions: time 20.0 day
[5] = tested on: 4T1; assay: Antitumor activity against mouse 4T1 cells expressing luciferase gene implanted in BALB/c lung metastatic mouse model assessed as reduction in fluorescence at 100 mg/kg, po administered once a day for 20 days by luciferase reporter gene based bioluminescence assay; type: functional, organism-based; conditions: time 20.0 day
[6] = Toxicity in BALB/c mouse xenografted with mouse 4T1 assessed as effect on body weight at 100 mg/kg, po administered once a day for 36 days; type: organism-based; conditions: in vivo, 864 h, time 36 day
[7] = tested on: 4T1; assay: Antimetastatic activity against mouse 4T1 cells expressing luciferase gene implanted in BALB/c lung metastatic mouse model assessed as down regulation of ANXA2 expression in liver tissue at 100 mg/kg, po administered once a day for 20 days; type: functional, organism-based; conditions: time 20.0 day
[8] = tested on: 4T1; assay: Antitumor activity against mouse 4T1 cells xenografted in BALB/c mouse assessed as decrease in liver metastasis at 100 mg/kg, po administered once a day for 36 days by H&E staining based assay; type: functional, organism-based; conditions: time 36.0 day
[9] = tested on: 4T1; assay: Antitumor activity against mouse 4T1 cells xenografted in BALB/c mouse assessed as tumor growth inhibition at 100 mg/kg, po administered once a day for 36 days; type: functional; conditions: 4T1, po, 864 h, time 36 day, read-out: TGI
[10] = tested on: 4T1; assay: Antitumor activity against mouse 4T1 cells expressing luciferase gene implanted in BALB/c lung metastatic mouse model assessed as reduction in fluorescence at 10 mg/kg, ip administered twice a week for 20 days by luciferase reporter gene based bioluminescence assay; type: functional, organism-based; conditions: time 20.0 day
[11] = target: T1, Annexin A2/S100-A10 (Homo sapiens) (UniProt P07355+P60903); assay: Inhibition of human ANXA2/S100A10 interaction in MDA-MB-231 cells pretreated with compound for 48 hrs by immunoprecipitation based Western blot analysis; type: cell-based
T1 sequence (P07355 2-339 limits assumed): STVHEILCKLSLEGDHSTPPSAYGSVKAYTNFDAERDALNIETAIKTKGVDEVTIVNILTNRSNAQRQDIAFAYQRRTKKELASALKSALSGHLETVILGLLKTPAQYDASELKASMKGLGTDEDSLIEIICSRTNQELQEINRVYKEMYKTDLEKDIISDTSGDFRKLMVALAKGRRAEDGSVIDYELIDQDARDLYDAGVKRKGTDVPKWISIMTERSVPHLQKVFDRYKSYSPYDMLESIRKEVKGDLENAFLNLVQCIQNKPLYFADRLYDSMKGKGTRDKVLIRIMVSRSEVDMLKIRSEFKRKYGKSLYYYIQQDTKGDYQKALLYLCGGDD
T1 sequence (P60903 whole entry partner): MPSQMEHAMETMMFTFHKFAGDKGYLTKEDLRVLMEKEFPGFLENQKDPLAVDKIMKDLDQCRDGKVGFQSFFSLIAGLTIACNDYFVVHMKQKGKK

[12] = tested on: MDA-MB-231; assay: Inhibition of cell stemness in human MDA-MB-231 cells assessed as reduction in tumor spheres count at 10 to 20 uM incubated in tumorsphere medium for 4 days followed by compound incubation for 96 hrs by microscopic analysis; type: functional, cell-based; conditions: dose 10-20 µM
[13] = tested on: 4T1; assay: Inhibition of cell stemness in mouse 4T1 cells assessed as reduction in tumor spheres count at 10 to 20 uM incubated in tumorsphere medium for 4 days followed by compound incubation for 96 hrs by microscopic analysis; type: functional, cell-based; conditions: dose 10-20 µM
[14] = tested on: 4T1; assay: Antitumor activity against mouse 4T1 cells assessed as reduction in cell invasion at 2.5 to 5 uM measured after 24 hrs by crystal violet staining based transwell assay; type: functional; conditions: dose 2.5-5 µM
[15] = tested on: MDA-MB-231; assay: Inhibition of cell migration in human MDA-MB-231 cells at 2.5 to 5 uM incubated for 36 hrs by wound healing assay; type: functional, cell-based; conditions: dose 2.5-5 µM
[16] = tested on: 4T1; assay: Inhibition of colony formation in mouse 4T1 cells at 2.5 to 5 uM incubated for 7 days by crystal violet staining based assay; type: functional, cell-based; conditions: dose 2.5-5 µM, time 7.0 day
[17] = target: T1, Annexin A2/S100-A10 (Homo sapiens); assay: Inhibition of human ANXA2/S100A10 interaction in MDA-MB-231 cells at 5 to 10 uM measured after 48 hrs by immunocytochemistry assay; type: cell-based; conditions: dose 5-10 µM
[18] = tested on: MDA-MB-231; assay: Antimetastatic activity against human MDA-MB-231 cells assessed as accumulation of E-cadherin in cell cytoplasm at 5 to 10 uM measured after 48 hrs by Western blot analysis; type: functional, cell-based; conditions: dose 5-10 µM
[19] = tested on: 4T1; assay: Antiproliferative activity against mouse 4T1 cells assessed as reduction in cell viability after 48 hrs by MTT assay; type: functional, cell-based; conditions: 4T1, 48 h
[20] = tested on: MDA-MB-231; assay: Antimetastatic activity against human MDA-MB-231 cells assessed as decrease in E-cadherin expression in cell membrane at 5 to 10 uM measured after 48 hrs by Western blot analysis; type: functional, cell-based; conditions: dose 5-10 µM
[21] = tested on: MDA-MB-231; assay: Inhibition of colony formation in human MDA-MB-231 cells at 2.5 to 5 uM incubated for 7 days by crystal violet staining based assay; type: functional, cell-based; conditions: dose 2.5-5 µM, time 7.0 day
[22] = tested on: 4T1; assay: Inhibition of cell migration in mouse 4T1 cells at 5 to 10 uM incubated for 24 hrs by wound healing assay; type: functional, cell-based; conditions: dose 5-10 µM
[23] = tested on: MDA-MB-231; assay: Antitumor activity against human MDA-MB-231 cells assessed as reduction in cell invasion at 2.5 to 5 uM measured after 24 hrs by crystal violet staining based transwell assay; type: functional; conditions: dose 2.5-5 µM
[24] = tested on: MDA-MB-231; assay: Inhibition of cell stemness in human MDA-MB-231 cells assessed as reduction in size of tumor spheres incubated in tumorsphere medium for 4 days followed by compound incubation for 96 hrs by microscopic analysis; type: functional, cell-based
[25] = tested on: MDA-MB-231; assay: Antiproliferative activity against human MDA-MB-231 cells assessed as reduction in cell viability after 48 hrs by MTT assay; type: functional, cell-based; conditions: MDA-MB-231, 48 h
[26] = tested on: 4T1; assay: Inhibition of cell stemness in mouse 4T1 cells assessed as reduction in size of tumor spheres incubated in tumorsphere medium for 4 days followed by compound incubation for 96 hrs by microscopic analysis; type: functional, cell-based

C[C@H]1CCC[C@]2(C)C[C@H]3OC(=O)[C@@H](CN(C)C)[C@H]3[C@@H]3O[C@@]132.O=C(O)/C=C/C(=O)O
active: Activity [1] | Activity [2] | Activity [3] | Activity [4] | Activity [5] | Activity [7] | Activity [8]
Non-Toxic: Activity [6]
30%: inhibition in vivo at 100 mg/kg [9]

CC(=O)O[C@H]1C(=O)[C@@]2(C)[C@H]([C@H](OC(=O)c3ccccc3)[C@]3(O)C[C@H](OC(=O)[C@H](O)[C@@H](NC(=O)c4ccccc4)c4ccccc4)C(C)=C1C3(C)C)[C@]1(OC(C)=O)CO[C@@H]1C[C@@H]2O
inactive: Activity [10]

C=C1C(=O)O[C@@H]2C[C@@]3(C)CCC[C@H](C)[C@@]34O[C@H]4[C@H]12
active: inhibition [11] | inhibition [12] | inhibition [13] | Activity [14] | inhibition [15] | inhibition [16] | inhibition [17] | Activity [18] | Activity [20] | inhibition [21] | inhibition [22] | Activity [23] | inhibition [24] Dose-Dependent Effect | inhibition [26] Dose-Dependent Effect
18.4 µM: IC50 [19]
16 µM: IC50 [25]
